US9457033B2, “Steroid alkaloids and uses thereof as antimicrobial agents against electron transport-deficient microbes and as potentiators for antimicrobial agents against pathogenic bacteria” (priority 2011, dated 2016)
Converted amounts (≈) assume the structure as drawn. Read-outs that look alike come from different tables or passages of the source. Marks after values point to notes of the source that are not given here.

Key:
[1] = tested on: normal S. aureus strain CF07-L; assay: Broth growth with HQNO and/or tomatidine, visually evaluated (FIG. 2); assay type: cell-based, Staphylococcus aureus; settings: combination of HQNO (20 μg/ml) and tomatidine (8 μg/ml), 48 h
Protocol: The MICs of tomatidine, tomatine and control antibiotics (gentamicin, vancomycin, erythromycin, ciprofloxacin and oxacillin) were determined against the normal strains ATCC 29213 and CF07-L as well as against the SCV strain CF07-S in the presence of 20 μg HQNO/ml.

[2] = tested on: S. aureus ATCC 29213 in co-culture with P. aeruginosa PA14; assay: Viability in co-culture with P. aeruginosa PA14, CAMHB; assay type: cell-based, Staphylococcus aureus; settings: for Viability of S. aureus: SA + PA + TO at 8 μg/ml
Description: Bacteria were sampled, serially diluted and plated on tryptic soy agar for CFU determinations. […] Mannitol-salt agar plates were used to selectively evaluate S. aureus CFU when in co-culture with P. aeruginosa.

[3] = tested on: S. aureus SCV strain CF6A-S; assay: microbe, parasite or virus in culture; assay type: cell-based; settings: Staphylococcus aureus
[4] = tested on: S. saprophyticus ATCC 15305; assay: MIC, microdilution, with or without tomatidine; settings: for MIC: Staphylococcus saprophyticus

| Structure (SMILES) | growth, visually evaluated [1] | Viability of S. aureus ([2]; 0 h) | Viability of S. aureus ([2]; 24 h) | type of antibacterial effect ([2]; in co-culture with P. aeruginosa, tomatidine 8 μg/ml) | MIC [3] | Fold (−TO/+TO) ([4]; S. saprophyticus ATCC 15305, 8 μg/ml of tomatidine) | MIC ([4]; ATCC15305, read-out: MIC +TO) | MIC ([4]; ATCC15305, read-out: MIC −TO) |
| --- | --- | --- | --- | --- | --- | --- | --- | --- |
| C[C@H]1CC[C@]2(NC1)O[C@H]1C[C@H]3[C@@H]4CC[C@H]5C[C@@H](O)CC[C@]5(C)[C@H]4CC[C@]3(C)[C@H]1[C@@H]2C [Tomatidine, tomatidine] | inhibitory activity | 5.4 ± 0.1 Log10 CFU/ml | 2 ± 1 ^b Log10 CFU/ml | bactericidal | – | – | – | – |
| NC[C@H]1O[C@H](O[C@H]2[C@H](O)[C@@H](O[C@H]3O[C@H](CO)[C@@H](O)[C@H](N)[C@H]3O)[C@H](N)C[C@@H]2N)[C@H](N)C[C@@H]1O [Tobramycin, tobramycin] | – | – | – | – | > 32 µg/mL | 8 fold | 0.016 µg/mL (≈ 0.0342 µM) | 0.12 µg/mL (≈ 0.257 µM) |
